Patent US10226041B2, “Compositions and methods for improving the quality of processed sperm” (Inguran, LLC, priority 2011, dated 2019)
Values joined by “and” are separate entries in the source; they are usually repeats but may differ in a detail not shown here. Equal values may be shown once.

System: sex-sorted sperm cells
Experiment: CASA post-thaw motility of sex sorted bull sperm treated with OSR
Assay type: cell-based, bovine
Parameters: key to BCF: beat cross frequency in Hz; key to ALH: lateral head displacement in μm; key to STR / LIN: percent; key to Motile: percent motile sperm; key to VAP / VSL / VCL: velocity in μm/s
Details: for ALH / BCF / LIN / Motile / Prog / STR / VAP / VCL / VSL: 3 hr post-thaw
From the text: 5. Sperm Motility Evaluations by CASA. A comparison of viewing chambers and slides can be done in a variety of IVOS instruments, which for example only can be a Hamilton-Thorne IVOS (Hamilton-Thorne, Beverly, Mass.). Instrument settings: image capture; frames per second=60; number of frames=30; cell detection; minimum contrast=50; minimum cell size=5; defaults, cell size=5; cell intensity=50; progressive cells, path velocity=50 um/s; straightness ≥70%; slow cells (um/s); average path velocity (VAP, <30 um/s), straight-line velocity (VSL, <15 um/s). The CASA motility variables measured can be a percentage of total motile sperm (motile), percentage of progressively motile sperm (progressive), VAO, VSL, curvilinear velocity (VCL, um/s), average lateral head displacement (ALK, um) and the number of times the sperm head crosses the mean path/s (BCF, Hz), straight-line sperm motility (STR, %), and linear sperm motility (LIN, %). See for instance, Lenz, R W, et al., J Anim Sci (2011) 89:383-388, incorporated by reference herein in its entirety.
One set of semen from each bull was used as a control while to the remaining sets of semen samples were added vitamin B12, as the antioxidant, at respective concentrations of 0.5 mg/ml and 0.25 mg/ml. For each sample, the same concentration of vitamin B12 was added (i) during the staining process, and (ii) in the catch fluid of the collection vessel. […] Sperm samples were sorted in “High Purity” mode, and the collected sex-sorted sperm were extended with a cryoextender, which in some cases again contained the same concentration of vitamin B12 and the samples were frozen. Three hours after thawing (which is a standard time frame to conduct quality control assessments on sorted frozen thawed sperm samples) the thawed samples were put through CASA, a machine that provides various data on sperm including motility and progressive motility information.
In the tables below: VAP (average path velocity (μm/s)); VSL (straight-line velocity (μm/s)); VCL (curvilinear velocity (μm/s)); ALH (average lateral head displacement (μm)); BCF (the number of times the sperm head crosses the mean path/s in Hz); STR (percent straight-line sperm motility); LIN (percent linear sperm motility); PIA (percent intact acrosomes); motile (percent motile sperm); and progressive (percent progressively motile sperm).
There is no correlation with regard to randomly assigned names such as “Bull A.” Bull A from Example 5 is not the same bull as Bull A from Example 7.
In both cases the concentration of the vitamin B12 was 1 mg/ml. For all other bulls in the table below unless otherwise indicated, the concentration of vitamin B12 added was also 1 mg/ml.
In an additional experiment, motility and progressive motility were checked 3.75 hours after thawing a sex sorted semen sample treated with the antioxidant. The OSR was not added to the control sample. The semen sample was derived from a single bull. 0.25 mg/ml concentration of vitamin B12 was added to the test sample during the staining step, the collecting step (in the catch fluid of the collecting vessel) and in the cryoprotectant extender prior to freezing the sample.
[…] The OSR was not added to the control samples. The semen samples were derived from two Holstein bulls.

[1] = 0.5 mg/ml, 2 step F, 3 hrs post-thaw, Bulls 1-5
[2] = .15 mg/ml, 3 step, Holstein, 1M/straw
[3] = .15 mg/ml, 3 step, Holstein, 2.1M/straw
[4] = .15 mg/ml, 3 step, Jersey, 2.1M/straw
[5] = .25 mg/ml, 3 step, Holstein, 1M/straw
[6] = .25 mg/ml, 3 step, Holstein, 2.1M/straw
[7] = .25 mg/ml, 3 step, Holstein, 5M/straw
[8] = .25 mg/ml, 3 step, Jersey, 2.1M/straw
[9] = .35 mg/ml, 3 step, Holstein, 1M/straw
[10] = .35 mg/ml, 3 step, Holstein, 2.1M/straw
[11] = .35 mg/ml, 3 step, Holstein, 5M/straw
[12] = .5 mg/ml, 3 step, Holstein, 5M/straw

vitamin B12 was tested. Which “% Motility” value (0 hr, 1 step-stain (+−−), Bull C (Jersey), Trial 1) did it give?
Its value is 80%.

What about the “% Motility” value (0 hr, 1 step-stain (+−−), Bull C (Jersey), Trial 2) of the same substance?
Its value is 61%.

And the “% Motility” value (0 hr, 2 step-stain (++−), Bull C (Jersey), Trial 1)?
Its value is 74%.

What about the “% Motility” value (0 hr, 2 step-stain (++−), Bull C (Jersey), Trial 2) of the same substance?
The value was 57%.

And the “% Motility” value (0 hr, 3 step (+++), Bull C (Jersey), Trial 1)?
Its value is 70%.

And the “% Motility” value (0 hr, 3 step (+++), Bull C (Jersey), Trial 2)?
The value was 76%.

And the “% Motility” value (0 hr, vitamin B12 0.5 mg/ml, 3 step, Bull A (Jersey))?
Its value is 60%.

And the “% Motility” value (0 hr, vitamin B12 0.5 mg/ml, 3 step, Bull B (Holstein))?
Its value is 79%.

And the “Motile (percent motile sperm)” value (0.5 mg/ml, 2 step F (catch fluid + cryoextender), 3 hrs post-thaw, Bulls 1-5)?
The value was 70.5% and 74.5% and 81.5% and 51% and 63.5%.

What about the “ALH (average lateral head displacement)” value [1] of the same substance?
The value was 4 μm and 5 μm.

What about the “BCF (times sperm head crosses the mean path/s)” value [1] of the same substance?
Its value is 21.5 Hz and 22.5 Hz and 26 Hz and 20.5 Hz and 23 Hz.

What about the “LIN (percent linear sperm motility)” value [1] of the same substance?
Its value is 61% and 52.5% and 49% and 47%.

What about the “STR (percent straight-line sperm motility)” value [1] of the same substance?
Its value is 85.5% and 84.5% and 83.5% and 84% and 86.5%.

What about the “VAP (average path velocity)” value [1] of the same substance?
The value was 77 μm/s and 56 μm/s and 60 μm/s and 50 μm/s.

What about the “VCL (curvilinear velocity)” value [1] of the same substance?
Its value is 108 μm/s and 98 μm/s and 109 μm/s and 101 μm/s and 94 μm/s.

What about the “VSL (straight-line velocity)” value [1] of the same substance?
The value was 66 μm/s and 51 μm/s and 53 μm/s and 47 μm/s and 45 μm/s.

What about the “% Motility” value (3 hr, 1 step-stain (+−−), Bull C (Jersey), Trial 1) of the same substance?
The value was 47%.

What about the “% Motility” value (3 hr, 2 step-stain (++−), Bull C (Jersey), Trial 1) of the same substance?
Its value is 57%.

What about the “% Motility” value (3 hr, 2 step-stain (++−), Bull C (Jersey), Trial 2) of the same substance?
Its value is 25%.

What about the “% Motility” value (3 hr, 3 step (+++), Bull C (Jersey), Trial 1) of the same substance?
The value was 75%.

And the “% Motility” value (3 hr, 3 step (+++), Bull C (Jersey), Trial 2)?
The value was 42%.

And the “% Motility” value (3 hr, vitamin B12 0.5 mg/ml, 3 step, Bull A (Jersey))?
Its value is 42%.

What about the “% Motility” value (3 hr, vitamin B12 0.5 mg/ml, 3 step, Bull B (Holstein)) of the same substance?
The value was 48%.

What about the ALH [2] of the same substance?
Its ALH is 4.

What about the BCF [2] of the same substance?
Its BCF is 12.

And the LIN [2]?
Its LIN is 53.

And the Motile [2]?
Its Motile is 48.

And the Prog [2]?
Its Prog is 18.

And the STR [2]?
The STR was 88.

And the VAP [2]?
The VAP was 48.

What about the VCL [2] of the same substance?
Its VCL is 81.

And the VSL [2]?
Its VSL is 42.

And the ALH [3]?
The ALH was 5.

What about the BCF [3] of the same substance?
Its BCF is 18.

What about the LIN [3] of the same substance?
Its LIN is 48.

And the Motile [3]?
Its Motile is 49.

And the Prog [3]?
Its Prog is 10.

And the STR [3]?
The STR was 86.

And the VAP [3]?
The VAP was 44.

What about the VCL [3] of the same substance?
Its VCL is 79.

And the VSL [3]?
Its VSL is 38.

What about the ALH [4] of the same substance?
Its ALH is 6.

And the BCF [4]?
The BCF was 15.

What about the LIN [4] of the same substance?
The LIN was 47.

And the Motile [4]?
Its Motile is 25.

What about the Prog [4] of the same substance?
The Prog was 4.

And the STR [4]?
Its STR is 84.

What about the VAP [4] of the same substance?
Its VAP is 42.

And the VCL [4]?
Its VCL is 75.

What about the VSL [4] of the same substance?
The VSL was 35.

And the ALH [5]?
The ALH was 4.

And the BCF [5]?
Its BCF is 22.

And the LIN [5]?
Its LIN is 53.

What about the Motile [5] of the same substance?
The Motile was 48.

And the Prog [5]?
Its Prog is 29.

And the STR [5]?
Its STR is 87.

What about the VAP [5] of the same substance?
Its VAP is 55.

And the VCL [5]?
Its VCL is 92.

What about the VSL [5] of the same substance?
Its VSL is 47.

And the ALH [6]?
The ALH was 5.

What about the BCF [6] of the same substance?
Its BCF is 20.

What about the LIN [6] of the same substance?
The LIN was 50.

And the Motile [6]?
Its Motile is 48.

What about the Prog [6] of the same substance?
The Prog was 18.

What about the STR [6] of the same substance?
The STR was 87.

What about the VAP [6] of the same substance?
The VAP was 46.

What about the VCL [6] of the same substance?
Its VCL is 81.

And the VSL [6]?
Its VSL is 40.

And the ALH [7]?
The ALH was 7.

And the BCF [7]?
Its BCF is 14.

And the LIN [7]?
Its LIN is 42.

What about the Motile [7] of the same substance?
The Motile was 24.

And the Prog [7]?
Its Prog is 2.

And the STR [7]?
The STR was 70.

What about the VAP [7] of the same substance?
The VAP was 41.

What about the VCL [7] of the same substance?
The VCL was 69.

What about the VSL [7] of the same substance?
The VSL was 28.

And the ALH [8]?
The ALH was 5.

What about the BCF [8] of the same substance?
Its BCF is 20.

And the LIN [8]?
Its LIN is 50.

And the Motile [8]?
The Motile was 48.

What about the Prog [8] of the same substance?
Its Prog is 20.

What about the STR [8] of the same substance?
The STR was 85.

What about the VAP [8] of the same substance?
Its VAP is 51.

And the VCL [8]?
The VCL was 87.

What about the VSL [8] of the same substance?
Its VSL is 43.

And the ALH [9]?
The ALH was 4.

And the BCF [9]?
The BCF was 23.

What about the LIN [9] of the same substance?
The LIN was 55.

What about the Motile [9] of the same substance?
Its Motile is 65.

What about the Prog [9] of the same substance?
The Prog was 46.

And the STR [9]?
The STR was 88.

What about the VAP [9] of the same substance?
Its VAP is 58.

What about the VCL [9] of the same substance?
The VCL was 94.

And the VSL [9]?
The VSL was 51.

And the ALH [10]?
The ALH was 5.

And the BCF [10]?
The BCF was 23.

What about the LIN [10] of the same substance?
The LIN was 53.

What about the Motile [10] of the same substance?
The Motile was 46.

And the Prog [10]?
The Prog was 30.

And the STR [10]?
Its STR is 88.

And the VAP [10]?
The VAP was 58.

And the VCL [10]?
Its VCL is 99.

What about the VSL [10] of the same substance?
Its VSL is 51.

What about the ALH [11] of the same substance?
The ALH was 7.

And the BCF [11]?
Its BCF is 14.

What about the LIN [11] of the same substance?
Its LIN is 43.

And the Motile [11]?
The Motile was 28.

What about the Prog [11] of the same substance?
The Prog was 3.

And the STR [11]?
Its STR is 69.

What about the VAP [11] of the same substance?
Its VAP is 41.

And the VCL [11]?
Its VCL is 68.

And the VSL [11]?
Its VSL is 32.

And the ALH [12]?
Its ALH is 6.

And the BCF [12]?
Its BCF is 15.

What about the LIN [12] of the same substance?
Its LIN is 43.

And the Motile [12]?
The Motile was 14.

And the Prog [12]?
The Prog was 3.

What about the STR [12] of the same substance?
Its STR is 70.

And the VAP [12]?
The VAP was 43.

What about the VCL [12] of the same substance?
Its VCL is 71.

What about the VSL [12] of the same substance?
Its VSL is 30.
